In experiment [1] the test system is isolated trachea of guinea pigs. The experiment can be described thus: Spasmolysis of histamine-induced contraction on isolated guinea pig trachea, organ bath. Format: cell-based. The note with it: Cavia porcellus; histamine dihydrochloride as spasmogen, 0.2-2 μg/ml; at least six individual tests; read-out: ED50 on the isolated tracheal preparation. On the procedure: (§1) Experiments were carried out on the isolated ileum and on the isolated trachea of guinea pigs in a typical manner in vitro in a suitable organ bath. Histamine dihydrochloride was used as a spasmogen in a final concentration of 0.2-2 μg/ml, depending on the organ preparation. The activity of the compounds was determined from the reactive spasmolysis, i.e., the relative decrease in the force of contractions compared with zero dose. The concentration-action relation was calculated from the non-linear regression between dose and action from at least six individual tests.

The subject of experiment [2] is isolated ileum of guinea pigs. The experiment can be described thus: Spasmolysis of histamine-induced contraction on isolated guinea pig ileum, organ bath. It is filed as cell-based. The note with it: Cavia porcellus; histamine dihydrochloride as spasmogen, 0.2-2 μg/ml; at least six individual tests; read-out: ED50 on guinea pig ileum. Here is the method:
as §1

The test system of experiment [3] is histamine-induced skin weal in the mouse. The experiment can be described thus: Duration of inhibition of histamine-induced skin weal in the mouse after a single oral dose. The note with it: oral administration of a comparable dose (to 6 mg/kg). It is filed as in vivo. On the procedure:
The experiments were carried out on male NMRI mice with a body weight of 25-30 g. […] The dyestuff concentration determined by photometry in a defined area of skin can be designated a measure of the antihistamine activity.

Molecules are shown by their SMILES. Converted amounts (≈) assume the structure as drawn.

As to `COc1cccc(CN2CCC(C(O)(c3ccccc3)c3ccccc3)CC2)c1` [[4-(Hydroxydiphenylmethyl)-1-piperidyl]-(3-methoxyphenyl)methane], the IC50 in experiment [1] was determined as 3.5 µg/mL (≈ 9.03 µM); in experiment [2], 0.029 µg/mL (≈ 0.0748 µM).

As for `CC(C)(C)c1ccc(C(O)CCCN2CCC(C(O)(c3ccccc3)c3ccccc3)CC2)cc1` (stereo not drawn) [terfenadine, α-[4-(1,1-Dimethylethyl)phenyl]-4-(hydroxydiphenylmethyl)-1-piperidinobutanol], the values for the IC50 in experiment [1] and in experiment [2] were 4.1 µg/mL (≈ 8.69 µM) and 0.062 µg/mL (≈ 0.131 µM), respectively. For the same molecule, the “antihistamine action after 4 hours” value in experiment [3] is on record as “no longer possible to measure reliably an antihistamine action”.

(Values after patent publication US5077301A, “4-(hydroxydiphenylmethyl)-1-piperidylphenylalkane derivatives as antihistamines and methods of treatment of an allergic response” (Schaper & Bruemmer GmbH & Co. KG, priority 1989, dated 1991).)
